Legend:
Experiment in all cases: relative viability (nuclei count vs DMSO), 5 days (fraction); higher = more cells survive
[1] = compound: C1=CC=C2C(=C1)C=CC(=C2SSC3=C(C=CC4=CC=CC=C43)O)O [IPA-3] + Cc1nc(Nc2ncc(C(=O)Nc3c(C)cccc3Cl)s2)cc(N2CCN(CCO)CC2)n1 [Dasatinib] (partner 0.075 µM)
Procedure, shortened: (§1)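 For relative viability, nuclei counts in treated wells were divided by those in vehicle wells. Lung cancer cell lines had been pin-tool dosed in 1536-well plates the day after seeding and cultured for 5 days, then fixed and stained in one step (final 0.05% Triton X-100, 1% formaldehyde, 1 ug/ml Hoechst) and imaged at 4×. Doses were one drug alone or a fixed anchor-drug dose plus five library-drug doses (not always all listed) in √10 steps, and values are duplicate-plate medians.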

[2] = compound: Cc1ccc(-n2nc(C(C)(C)C)cc2NC(=O)Nc2ccc(OCCN3CCOCC3)c3ccccc23)cc1 [Doramapimod] + CC(=O)c1c(C)c2cnc(Nc3ccc(N4CCNCC4)cn3)nc2n(C2CCCC2)c1=O [Palbociclib] (partner 0.5 µM)
Procedure, shortened: as §1

[3] = compound: Cc1ccc(-n2nc(C(C)(C)C)cc2NC(=O)Nc2ccc(OCCN3CCOCC3)c3ccccc23)cc1 [Doramapimod] + CC1(C)CCC(c2ccc(Cl)cc2)=C(CN2CCN(c3ccc(C(=O)NS(=O)(=O)c4ccc(N[C@H](CCN5CCOCC5)CSc5ccccc5)c(S(=O)(=O)C(F)(F)F)c4)cc3)CC2)C1 [Navitoclax] (partner 0.5 µM)
Procedure, shortened: as §1

[4] = compound: Cc1ccc(-n2nc(C(C)(C)C)cc2NC(=O)Nc2ccc(OCCN3CCOCC3)c3ccccc23)cc1 [Doramapimod] + Nc1nc2[nH]cc(CCc3ccc(C(=O)N[C@@H](CCC(=O)O)C(=O)O)cc3)c2c(=O)[nH]1 [Pemetrexed] (partner 0.2 µM)
Procedure, shortened: as §1

Cell Line | relative viability ([1]; first compound 0.2 µM) | relative viability ([1]; first compound 0.6325 µM) | relative viability ([1]; first compound 2 µM) | relative viability ([1]; first compound 6.325 µM) | relative viability ([1]; first compound 20 µM) | relative viability ([2]; first compound 0.02 µM) | relative viability ([2]; first compound 0.06325 µM) | relative viability ([2]; first compound 0.2 µM) | relative viability ([2]; first compound 0.6325 µM) | relative viability ([2]; first compound 2 µM) | relative viability ([3]; first compound 0.02 µM) | relative viability ([3]; first compound 0.06325 µM) | relative viability ([3]; first compound 0.2 µM) | relative viability ([3]; first compound 0.6325 µM) | relative viability ([3]; first compound 2 µM) | relative viability ([4]; first compound 0.02 µM) | relative viability ([4]; first compound 0.06325 µM) | relative viability ([4]; first compound 0.2 µM) | relative viability ([4]; first compound 0.6325 µM) | relative viability ([4]; first compound 2 µM)
NCI-H2087 | 1.16 | 0.663 | 0.865 | 0.822 | 0.777 | 0.237 | 0.215 | 0.293 | 0.27 | 0.219 | 0.955 | 0.98 | 0.933 | 1.1 | 0.888 | 0.589 | 0.646 | 0.597 | 0.573 | 0.61
NCI-H2126 | 0.709 | 0.58 | 0.68 | 0.633 | 0.545 | 0.378 | 0.352 | 0.373 | 0.336 | 0.326 | 0.791 | 0.843 | 0.743 | 0.881 | 0.738 | 0.69 | 0.667 | 0.605 | 0.667 | 0.642
NCI-H2170 | 0.573 | 0.339 | 0.467 | 0.614 | 0.613 | 0.381 | 0.421 | 0.413 | 0.387 | 0.377 | 0.512 | 0.495 | 0.539 | 0.601 | 0.478 | 0.278 | 0.261 | 0.256 | 0.28 | 0.259
NCI-H2228 | 0.571 | 0.51 | 0.529 | 0.62 | 0.557 | 0.797 | 1.04 | 0.746 | 0.686 | 0.66 | 0.669 | 0.786 | 1.05 | 0.913 | 0.605 | 0.339 | 0.354 | 0.322 | 0.393 | 0.308
NCI-H2347 | 0.357 | 0.305 | 0.336 | 0.41 | 0.336 | 0.474 | 0.466 | 0.483 | 0.383 | 0.513 | 0.947 | 0.726 | 0.793 | 0.761 | 0.821 | 0.42 | 0.443 | 0.444 | 0.436 | 0.376
NCI-H2405 | 0.221 | 0.204 | 0.204 | 0.163 | 0.211 | 0.531 | 0.487 | 0.505 | 0.575 | 0.495 | 0.901 | 0.831 | 0.812 | 1.33 | 0.804 | 1.13 | 1.13 | 1.02 | 1.18 | 1.01
NCI-H3122 | 0.804 | 0.751 | 0.847 | 0.919 | 0.926 | 0.18 | 0.176 | 0.191 | 0.2 | 0.213 | 1.03 | 0.992 | 1 | 1.09 | 0.914 | 0.197 | 0.207 | 0.187 | 0.207 | 0.196
PC-3 [JPC-3] | 1.08 | 1.02 | 1.04 | 0.865 | 1.01 | 0.588 | 0.549 | 0.549 | 0.571 | 0.565 | 0.923 | 0.767 | 0.737 | 0.869 | 0.723 | 1.27 | 1.37 | 1.24 | 0.933 | 1.03
PC-14 | 0.29 | 0.278 | 0.271 | 0.268 | 0.309 | 0.552 | 0.594 | 0.487 | 0.552 | 0.508 | 1.02 | 1.02 | 0.935 | 1.09 | 0.799 | 0.129 | 0.128 | 0.134 | 0.148 | 0.109
RERF-LC-KJ | 0.983 | 0.729 | 0.837 | 0.759 | 0.789 | 1.11 | 1.04 | 1.06 | 1.17 | 1.2 | 1.09 | 1.35 | 0.858 | 0.853 | 1.01 | 0.471 | 0.457 | 0.474 | 0.367 | 0.501
SK-LU-1 | 0.171 | 0.148 | 0.204 | 0.179 | 0.193 | 0.4 | 0.4 | 0.396 | 0.401 | 0.337 | 0.544 | 1 | 0.821 | 1.01 | 0.7 | 1 | 0.937 | 0.964 | 0.863 | 0.946
SK-MES-1 | 0.339 | 0.329 | 0.47 | 0.333 | 0.44 | 0.316 | 0.288 | 0.341 | 0.316 | 0.269 | 1.16 | 1.25 | 1.23 | 1.25 | 0.99 | 0.895 | 0.96 | 0.986 | 0.942 | 0.795
SW 1573 | 0.689 | 0.395 | 0.589 | 0.452 | 0.151 | 0.449 | 0.358 | 0.298 | 0.354 | 0.313 | 1.11 | 0.83 | 1.05 | 0.78 | 0.789 | 0.772 | 0.794 | 0.773 | 0.938 | 0.721

Reference: the supplement of paper PMC10307832
